SMILES strings stand for the structures. pIC50: −log10 of the molar value.

The test deals with T1, Protein mono-ADP-ribosyltransferase TIPARP (Homo sapiens, UniProt Q7Z3E1).
T1 sequence (Q7Z3E1 whole entry): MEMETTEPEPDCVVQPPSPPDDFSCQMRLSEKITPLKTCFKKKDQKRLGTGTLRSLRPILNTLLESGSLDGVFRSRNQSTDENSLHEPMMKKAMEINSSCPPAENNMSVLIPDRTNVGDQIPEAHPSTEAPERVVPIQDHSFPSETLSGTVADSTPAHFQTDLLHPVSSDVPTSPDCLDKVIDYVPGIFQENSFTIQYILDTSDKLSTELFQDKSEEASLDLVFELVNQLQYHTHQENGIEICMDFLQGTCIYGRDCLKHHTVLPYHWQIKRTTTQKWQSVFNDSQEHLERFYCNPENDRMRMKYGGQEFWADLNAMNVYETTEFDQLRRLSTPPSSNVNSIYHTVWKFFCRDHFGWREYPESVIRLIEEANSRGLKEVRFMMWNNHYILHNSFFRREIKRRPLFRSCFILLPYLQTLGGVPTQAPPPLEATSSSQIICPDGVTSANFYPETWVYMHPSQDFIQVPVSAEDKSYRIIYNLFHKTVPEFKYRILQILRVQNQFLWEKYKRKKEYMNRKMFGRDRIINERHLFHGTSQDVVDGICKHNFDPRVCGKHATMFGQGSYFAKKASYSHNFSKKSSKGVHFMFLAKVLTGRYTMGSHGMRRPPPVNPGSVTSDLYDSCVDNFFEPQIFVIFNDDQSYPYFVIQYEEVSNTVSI
Put plainly: In Vitro Enzymology Experiment of PARP2, 3, 5A, 5B, 7, 12, and 15. As to the method: 1. Preparation of 384-well histone-coated plate: 25 μL of histone solution was added to each well, and the plate was incubated overnight at 4° C.2. Preparation of PBST buffer, blocking buffer, and assay buffer3. The 384-well histone-coated plate was washed three times with PBST buffer. The plate was blocked by 50 μL of blocking buffer for 1 hour at room temperature. The plate was then washed three times with PBST buffer.4. Compound preparation:2000× compound was prepared in a 96-well source plate. 50 nL of the compound was transferred from the source plate to a 96-well intermediate plate, and 39.95 μL of assay buffer was added to each well. The plate was shaken well and centrifuged at 1000 rpm for 1 minute.5 μL of compound DMSO solution was transferred to each well.5. […] Detection:25 μL of Stre-HRP was added.The plate was incubated at room temperature for 1 hour and washed three times with PBS buffer.25 μL of QuantaRed Enhancer mix was added. The plate was incubated for 10 minutes.2.5 μL of QuantaRed Stop Solution was added to terminate the peroxidase reaction, and the plate was shaken for 10 to 30 seconds.7. […] Data processingUsing equation (1) to fit the data in Excel to obtain inhibition valuesinh%=(Max-Signal)/(Max-Min)*100Equation(1)Using equation (2) to fit the data in XL-Fit to obtain IC50 valuesY=Bottom+(Top-Bottom)/(1+(IC5 0/X)*HillSlopeEquation(2)Y is the percentage of inhibition, and X is the compound concentration.
Take `Cc1cnc(N2C[C@@H](C)N(C(=O)OCCc3c[nH]c(=O)c(C(F)(F)F)c3)C[C@H]2C)nc1` [US20240351997, Example 167]: the negative logarithm of the IC50 (pIC50) (in general, the IC50 on a negative log10 scale, so that one unit is a factor of ten) was 8.82. With `O=C(Oc1cccc(-c2c[nH]c(=O)c(C(F)(F)F)c2)c1)N1CCN(c2ncc(C(F)(F)F)cn2)[C@@H](CO)C1` [US20240351997, Example 141] the figure was 9.07. Under `Nc1cc(C(F)(F)F)cnc1N1CCN(C(=O)OCCc2c[nH]c(=O)c(C(F)(F)F)c2)CC1` [US20240351997, Example 131] stands 8.89; under `C[C@@H]1CN(c2ncc(C3CC3)cn2)[C@H](C)CN1C(=O)OCCc1c[nH]c(=O)c(C(F)(F)F)c1` [US20240351997, Example 180], 9.00. Turning to `O=C(Oc1cccc(-c2c[nH]c(=O)c(C(F)(F)F)c2)c1)N1CCN(c2ncc(C(F)(F)F)cn2)[C@@H](CO)C1` [US20240351997, Example 143], the negative logarithm of the IC50 (pIC50) is 9.21. Molecule `O=C(Oc1cccc(-c2c[nH]c(=O)c(C(F)(F)F)c2)c1)N1CCN(c2ncc(C(F)(F)F)cn2)[C@H](CO)C1` [US20240351997, Example 142] gave a pIC50 of 9.13.
